Assay results taken from US20250302846A1, “ANTIBIOTIC COMPOSITION AND METHODS OF USE THEREOF” (THE REGENTS OF THE UNIVERSITY OF COLORADO A BODY CORPORATE, priority 2022, published 2025).
Converted amounts (≈) assume the structure as drawn. “And” between values parts separate entries of the source, which are not always exact repeats. Identical values can stand only once. Like-named read-outs stand apart in the source and are kept apart here.

Experiments:
[1] = system: S. Typhimurium (SL1344); assay: Minimum inhibitory concentration determination in broth; assay type: cell-based; conditions: for MIC50: Salmonella enterica, TYPHIMURIUM
Experimental: A, B) Dose response curves monitoring S. Typhimurium (SL1344) or E. coli (K12) growth from an OD600 of 0.01, normalized to growth in 2% DMSO under the indicated condition. Mean and SEM of at least three biological replicates performed with technical triplicates; curve fit: sigmoidal, 4P L. C-E) Checkerboard assays of S. Typhimurium SL1344 growth from an OD600 of 0.01 in LB for 18 hours with novobiocin (up to 100 μg/mL) and (C) PMB (up to 48 μM), (D) JDI (up to 150 μM), or (E) D66 (up to 150 μM). Growth was normalized to growth in 2% DMSO, with the darkest blue representing 100% growth and white representing 0%.
Minimum inhibitory concentration determination: Overnight LB-grown cultures were diluted in LB or MHB to an optical density (OD600) of 0.01 and distributed into polystyrene 96-well flat-bottom plates (Greiner, 655185). […] The final DMSO concentration was at or below 2%. Where indicated, PMB [0.5 μg/mL] was added prior to D66. Plates were grown at 37° C. with shaking and OD600 was monitored (BioTek Synergy H1 or BioTek Eon). MICs were defined as the concentration at which 95% of growth was inhibited (OD600).

[2] = Murine tolerability after a single dose; assay type: in vivo, C57BL/6 mice; conditions: mice
Experimental: (§1) Murine pharmacokinetic analyses and infections: Three female C57BL/6 mice were injected intraperitoneally (IP) with 50 mg/kg of D66 formulated in DMSO (50 μL). […] Three mice were initially dosed and observed for 24 hours to determine tolerability. […] Plasma D66 levels were measured using a liquid chromatography coupled to tandem mass spectrometry (LC/MS/MS) assay by the University of Colorado Cancer Center Drug Discovery and Development Shared Resource. The assay used monitored the transition of D66 (376 m/z->176 m/z) and was linear from 1-1000 ng/ml with an accuracy and precision of 90.3%+10.4% (% CV) based on quality control (QC) samples included with analyzed unknown samples.

[3] = Murine pharmacokinetic analysis; assay type: in vivo, C57BL/6 mice; conditions: mice, 50 mg/kg IP
Experimental: FIG. 7A-B. D66 pharmacokinetic parameters. Values were calculated by compartmental modeling using Phoenix WinNonlin. Data fit a two-compartment model (r=0.9976) with bolus dosing. A) Decay curve. B) Parameter values.
as §1

[4] = Solubility limit in assay medium; assay type: physicochemical; conditions: bacterial growth broth (LB or MHB), 37 °C, plasma or biological fluid, kinetic from dmso stock, final DMSO at or below 2%
[5] = system: staphylococcal strains; assay: MIC95 quoted for staphylococcal persister and biofilm experiments; assay type: cell-based; conditions: staphylococcal strains; read-out: MIC95
Experimental: A-D) Overnight cultures of the indicated strains were treated at time 0 with DMSO, ciprofloxacin [4 μg/mL], vancomycin [10 μg/mL], or the corresponding MIC95 concentration of D66 (1x MIC95=130 μM, 49 μg/mL). Cultures were plated for enumeration of CFU at time points indicated. Mean and SEM of three biological replicates. E) RAW 264.7 macrophage-like cells and HeLa cells were infected with S. aureus USA300, at MOIs of 0.5 and 2.5, respectively. Cells were treated two hours after infection with DMSO (gray circle on Y axis), or dilutions of D66 from 40 μM. After 8 hours of infection, cells were lysed and plated for enumeration of CFU. Mean and SEM of biological duplicates performed with technical triplicates each with six dilutions of D66. The IC50 value that was calculatable is indicated.
Biofilm formation was monitored after 18 hours in TSB with subinhibitory concentrations of DMSO, rifampin (1x MIC95=0.05 μg/mL), vancomycin (1x MIC95=1 μg/mL), or D66 (1x MIC95=130 μM). A-D) Crystal violet staining for accumulated biofilm mass measured at A595. Mean and […]

Question: Which “growth inhibition in the presence of polymyxin B nonapeptide (PMBN)” value ([1]; PMBN [20 μg/mL], MHB) does the source give for `O=C(Nc1cc(Cl)cc(Cl)c1)N1CCCN(Cc2ccccc2)CC1` [D66] here?
Answer: did not enable D66 to inhibit growth

Question: And the “cMIC95 in LB” value ([1]; S. Typhimurium (SL1344) w/PMB (0.5 ug/mL), LB)?
Answer: 54 µM

Question: What about the “cMIC95 in MHB” value ([1]; S. Typhimurium (SL1344) w/PMB (0.5 ug/mL), MHB) of the same molecule?
Answer: 46 µM

Question: What about the “cMIC95 in LB” value ([1]; S. Typhimurium (SL1344), LB) of the same molecule?
Answer: >150 µM

Question: And the “cMIC95 in MHB” value ([1]; S. Typhimurium (SL1344), MHB)?
Answer: >150 µM

Question: What about the MIC50 ([1]; S. Typhimurium (SL1344) w/PMB (0.5 ug/mL), LB, read-out: MIC50 in LB) of the same molecule?
Answer: 45 µM and 17 µg/mL

Question: What about the MIC50 ([1]; S. Typhimurium (SL1344) w/PMB (0.5 ug/mL), MHB, read-out: MIC50 in MHB) of the same molecule?
Answer: 40 ± 1 µM

Question: What about the MIC50 ([1]; S. Typhimurium (SL1344), LB, read-out: MIC50 in LB) of the same molecule?
Answer: > 150 µM and > 57 µg/mL

Question: And the MIC50 ([1]; S. Typhimurium (SL1344), MHB, read-out: MIC50 in MHB)?
Answer: > 150 µM

Question: And the “observable toxicity and gross pathological lesions in liver, kidney, and gastrointestinal tissues” value ([2]; 50 mg/kg IP, observed for 24 hours)?
Answer: lack of observable toxicity and gross pathological lesions

Question: What about the “adverse effects (hunching, tachypnea, or abnormal ambulation)” value ([2]; single intraperitoneal dose of 50 mg/kg, after 24 hours) of the same molecule?
Answer: No adverse effects

Question: And the half-life ([3]; female, C57BL/6, mouse, plasma, two-compartment model, read-out: elimination (terminal) half-life (converted))?
Answer: 3 h

Question: What about the peak serum concentration [3] of the same molecule?
Answer: 3.5 µM

Question: What about the “steady state volume of distribution (Vss)” value [3] of the same molecule?
Answer: 43.3 L/kg

Question: What about the “elimination (terminal) half-life” value ([3]; two-compartment model, 50 mg/kg) of the same molecule?
Answer: 3.0 h

Question: What about the solubility [4] of the same molecule?
Answer: ~150 µM (≈ 56.7 µg/mL)

Question: What about the MIC [5] of the same molecule?
Answer: 130 µM and 49 µg/mL
